Consider eight compounds from PubChem BioAssay (NCI).

Each structure is given as a SMILES string.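 Cells were grown in 96-well plates and exposed to each compound for 48 hours at five concentrations; endpoints were interpolated linearly between bracketing concentrations, or set to the highest concentration if not reached. TGI marks complete inhibition of growth.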 A value given as a limit tells only on which side of the number the result lay.

A word on the TGI: it is the concentration at which net growth stops. Read a high TGI as less potent growth arrest.

Test systems include A549 NSCLC; BT-549 breast; HOP-62 NSCLC; HS 578T breast; HT29 colon; IGROV1 ovarian; KM12 colon; MALME-3M melanoma; MDA-N; MOLT-4 leukemia; NCI/ADR-RES ovarian; OVCAR-8 ovarian; SK-MEL-2 melanoma; SN12C renal; SNB-75 CNS; SW-620 colon; UACC-257 melanoma; OVCAR-4 ovarian; RPMI-8226 leukemia; U251 CNS.
Holding throughout (assay): DTP human tumour cell line panel, 48 h

`CSc1ccc(C2C(Cl)C(=O)N2NC(=O)c2c(Cl)c(Cl)c(Cl)c(Cl)c2-c2nc3ccccc3[nH]2)cc1` (stereo not drawn): the total growth inhibition concentration (TGI) with A549 NSCLC was greater than 100 µM; in the assay on BT-549 breast, 48.1 µM; in the assay on HOP-62 NSCLC it was greater than 100 µM; in the assay on HS 578T breast, greater than 100 µM; with HT29 colon, greater than 100 µM; in the assay on IGROV1 ovarian it was 2.14 µM. Further, the TGI is 34.8 µM with KM12 colon; 39.5 µM with MALME-3M melanoma; 87.9 µM in the assay with MDA-N; 68.7 µM in the assay with MOLT-4 leukemia; greater than 100 µM in the assay with NCI/ADR-RES ovarian; 59.9 µM with OVCAR-8 ovarian. The concentration for total growth inhibition (TGI) with SK-MEL-2 melanoma was greater than 100 µM; in the assay on SN12C renal, 37 µM; in the assay on SNB-75 CNS it was 35.4 µM; in the assay with SW-620 colon, greater than 100 µM; in the assay on UACC-257 melanoma, 51.3 µM.
For the compound `S=C(/N=c1/sc(Nc2ccccc2)nc2sc3c(c12)CCCC3)Nc1ccccc1`, the TGI with BT-549 breast, with HOP-62 NSCLC, in the assay with HS 578T breast, in the assay on HT29 colon, in the assay on IGROV1 ovarian and in the assay on KM12 colon was greater than 62.5 µM each time. The concentration for total growth inhibition (TGI) in the assay on MALME-3M melanoma, in the assay on MDA-N, in the assay on MOLT-4 leukemia, in the assay with OVCAR-4 ovarian, in the assay on RPMI-8226 leukemia and with SK-MEL-2 melanoma was greater than 62.5 µM throughout. For the same compound, the TGI with SN12C renal, with SW-620 colon, in the assay with U251 CNS and in the assay on UACC-257 melanoma was greater than 62.5 µM in each case.
For the compound `COc1ccc2c(c1)OCc1c-2oc2ccccc2c1=O`, the TGI with A549 NSCLC, with BT-549 breast, in the assay on HOP-62 NSCLC, in the assay on HT29 colon, in the assay on IGROV1 ovarian and with KM12 colon was greater than 100 µM throughout. The TGI in the assay on MALME-3M melanoma, in the assay with MDA-N, in the assay on MOLT-4 leukemia, with NCI/ADR-RES ovarian, with OVCAR-8 ovarian and in the assay on RPMI-8226 leukemia was greater than 100 µM each time. The total growth inhibition concentration (TGI) was greater than 100 µM in the assay on SK-MEL-2 melanoma; greater than 100 µM with SN12C renal; 92.4 µM in the assay with SNB-75 CNS; greater than 100 µM with U251 CNS; greater than 100 µM with UACC-257 melanoma.
`O=P(c1ccccc1)(c1ccccc1)C(NCc1ccccc1)c1ccc(F)cc1` (stereo not drawn): the TGI was determined as 30.2 µM with A549 NSCLC; 42.6 µM in the assay with HOP-62 NSCLC; 98.2 µM in the assay with HS 578T breast; 26.5 µM in the assay with HT29 colon; 33.4 µM in the assay on IGROV1 ovarian; 29.1 µM with KM12 colon. Further, the TGI in the assay with MALME-3M melanoma worked out at 34.6 µM; in the assay with MDA-N, 33.1 µM; in the assay with MOLT-4 leukemia it was 37.5 µM; in the assay on NCI/ADR-RES ovarian, 41.2 µM; with OVCAR-4 ovarian it was 92.6 µM; with OVCAR-8 ovarian, 40.6 µM. In addition, the TGI with RPMI-8226 leukemia is greater than 100 µM; in the assay with SK-MEL-2 melanoma, 29 µM; in the assay on SN12C renal, 36.6 µM; with SNB-75 CNS, 48.3 µM; in the assay with SW-620 colon, 35.5 µM; in the assay on U251 CNS it was 30 µM. The compound also came in with a concentration for total growth inhibition (TGI) in the assay with UACC-257 melanoma of 34.9 µM.
In the case of `CC1CN=C(Nc2ccc(S(N)(=O)=O)cc2)S1` (stereo not drawn), the TGI with A549 NSCLC, in the assay with HOP-62 NSCLC, in the assay with HS 578T breast, with HT29 colon, in the assay on IGROV1 ovarian and with KM12 colon was greater than 100 µM each time. Besides, the TGI is greater than 100 µM in the assay with MALME-3M melanoma; greater than 10 µM in the assay on MDA-N; greater than 100 µM in the assay on MOLT-4 leukemia; greater than 100 µM with NCI/ADR-RES ovarian; greater than 100 µM with OVCAR-4 ovarian; greater than 100 µM in the assay with OVCAR-8 ovarian. Moreover, the concentration for total growth inhibition (TGI) in the assay with RPMI-8226 leukemia, in the assay on SK-MEL-2 melanoma, in the assay with SN12C renal, with SNB-75 CNS, in the assay with SW-620 colon and with U251 CNS was greater than 100 µM each time. For the same compound, in the assay on UACC-257 melanoma, the TGI was greater than 100 µM.
Regarding `CCOC(=O)C(Cl)(NC(=O)c1ccc(F)cc1)C(F)(F)F` (stereo not drawn), the concentration for total growth inhibition (TGI) in the assay with A549 NSCLC, with HOP-62 NSCLC, in the assay with HS 578T breast, in the assay with HT29 colon, with IGROV1 ovarian and in the assay with KM12 colon was greater than 100 µM in each case. Also, the TGI in the assay with MALME-3M melanoma, with MDA-N, with MOLT-4 leukemia, with NCI/ADR-RES ovarian, in the assay with OVCAR-4 ovarian and with OVCAR-8 ovarian was greater than 100 µM each time. Moreover, the TGI with RPMI-8226 leukemia, in the assay with SK-MEL-2 melanoma, with SN12C renal, with SNB-75 CNS, with SW-620 colon and in the assay on U251 CNS was greater than 100 µM each time. This compound also registered a TGI with UACC-257 melanoma greater than 100 µM.
For the compound `Cn1c(=O)c2c(nc(NCCCCl)n2CC(=O)NCCCCl)n(C)c1=O`, the TGI in the assay on A549 NSCLC, in the assay with BT-549 breast, in the assay with HOP-62 NSCLC, in the assay with HS 578T breast, in the assay on HT29 colon and in the assay on IGROV1 ovarian was greater than 100 µM in each case. The TGI with KM12 colon, in the assay with MDA-N, in the assay with MOLT-4 leukemia, in the assay with NCI/ADR-RES ovarian, in the assay on OVCAR-4 ovarian and with OVCAR-8 ovarian was greater than 100 µM in each case. Moreover, the concentration for total growth inhibition (TGI) with RPMI-8226 leukemia, with SK-MEL-2 melanoma, in the assay with SN12C renal, with SNB-75 CNS, in the assay on SW-620 colon and in the assay with U251 CNS was greater than 100 µM throughout. Besides, the concentration for total growth inhibition (TGI) in the assay on UACC-257 melanoma is greater than 100 µM.
In the case of `O=C1C(Br)=CC2(C=C1Br)CCN=c1c(O)c3c(c(O)c12)=NC=N3`, the concentration for total growth inhibition (TGI) is 37.9 µM with A549 NSCLC; 33.3 µM in the assay with BT-549 breast; 31.1 µM in the assay with HOP-62 NSCLC; 71.5 µM with HS 578T breast; 29.2 µM in the assay on HT29 colon; 30.9 µM in the assay on KM12 colon. Moreover, the concentration for total growth inhibition (TGI) is 3.34 µM in the assay with MDA-N; greater than 100 µM in the assay on MOLT-4 leukemia; 52.9 µM in the assay with NCI/ADR-RES ovarian; 27.8 µM with OVCAR-4 ovarian; 31.9 µM in the assay with OVCAR-8 ovarian; 50.9 µM in the assay on RPMI-8226 leukemia. For the same compound, the TGI in the assay on SK-MEL-2 melanoma worked out at 21.3 µM; in the assay with SNB-75 CNS it was 30.5 µM; in the assay on SW-620 colon, 31.9 µM; in the assay with U251 CNS it was 28.4 µM; with UACC-257 melanoma, 28 µM.
